Test results published in PMC6856805, “Environmental Risk Assessment for the Active Pharmaceutical Ingredient Mycophenolic Acid in European Surface Waters” (Environmental Toxicology and Chemistry, 2019).
≈ marks a conversion by molar mass, not a printed value. Where two headings read alike, the source gives them in different places.

Legend:
Artemia salina = system: Artemia salina; design: method as in earlier work; conditions: non‐GLP; ref Ďuračková et al. 1977; cited from earlier work
[1] = Photodegradation in buffered aqueous solutions under natural sunlight; format: physicochemical
Procedure: In contrast, Franquet‐Griell et al. (2017a) reported MPA k photo values of 0.0284 min^–1 for UV‐C irradiation and 0.004 min^–1 in a Solar Box artificial sunlight reactor. […] Giebułtowicz and Nałęcz‐Jawecki (2016) presented a UV‐visual light spectrum of MPA in their Supporting Information with a λmax at 215 nm and 2 sequentially lower peaks at 248 and 297 nm, confirming UV‐C photosensitivity.
The photodegradation of MPA in buffered aqueous solutions at pH 5, 7 and 9 under natural sunlight was determined by Syntex, 'closely following the US FDA guideline' (Nicholson 1994)). MPA was used in solutions of 3.12×10^–5 M (= 10 mg/L); the pH 5 solution was buffered with 0.1 M sodium acetate, the pH 7 solution with 0.1 M monobasic sodium phosphate and the pH 9 solution with 0.1 M sodium borate buffer. As actinometers (reference photodegradants) p-nitroanisole at 1.00×10^–5 M was used, with 4.96×10^–3 M pyridine for pH 5, with 6.20×10^–3 M pyridine for pH 7 and with 9.93×10^–3 M pyridine for pH 9. In each of the seasonal studies, hermetically closed quartz tubes with either one of the MPA solutions or the corresponding actinometer solutions were exposed to natural sunlight in triplicate. Single control tubes containing either MPA solution or actinometer solution, both at different pHs, were wrapped in aluminium foil and covered in black plastic and exposed in parallel. The tubes were set up in Palo Alto, Ca, USA at 37° 25' N, in parallel on a board painted black, which was exposed on a stand pointing due […] at an angle of 30°. Data for the four seasonal experiments, with date, time of initiation and end, sampling intervals, weather, cloud cover and temperature, are given in the report. At each of several equivalent timepoints, one set of tubes was removed from sunlight, analysed by HPLC and compared with the respective dark control. The substance loss of p-nitroanisole, with known quantum yield, in the […] served to calibrate the loss of MPA in the test tubes and determine the photolytic rate constants kphoto and half-lives for MPA at different pH levels and insolations over the seasons.

[2] = Screening hydrolysis test; format: physicochemical; conditions: 5 d
Procedure: (§1) Syntex derived many basic physicochemical properties for both MPM and MPA in the early 1990s. The results for MPA are mostly given in the present study.
A screening hydolysis test was performed by Syntex with MPA in 0.1 M buffered solutions in triplicate at pH 5, 7 and 9 over 5 days at 50 °C, with HPLC determination of MPA at the start and end of the exposure, 'closely following US Food and Drug Administration 1987 Environmental Assessment Technical Assistance Handbook recommendations' (Young & Licato 1994b).

[3] = system: Rhaphidocelis (Pseudokirchneriella) subcapitata; conditions: cited from earlier work
Daphnia magna = experiment: OECD 211 chronic reproduction test; format: in vivo; conditions: GMMC
Procedure: An OECD 211 chronic reproduction test with the cladoceran Daphnia magna was performed by ECT Oekotoxikologie with a series of concentrations of MPA in daphnid test medium plus medium-only controls over 21 days (Egeler & Chambers 2018). The test medium was exchanged every 2–3 days, the daphnids were fed with live algae (Desmodesmus subspicatus) throughout the exposure. Fresh and old medium samples were analysed by LC–MS/MS (Supplemental Information) and the time-weighted mean measured concentrations (TWMMC) for the concentrations determined. Statistical data evaluation was performed using Williams's test, Fisher's Exact test, Multiple sequentially rejective U-test after Bonferroni-Holm and Probit analysis. The endpoints in this test were survival and size (length) of the parental daphnids at the end of the test; number of young daphnids released per surviving F0 mother; any malformations or undeveloped eggs; and the intrinsic rate of reproduction (IRR), which integrates both survival and reproduction, as a measure of longer-term stability (IRR ~1), growth (IRR >1) or decline (IRR <1) of a population.

daphnid = conditions: in vivo
[4] = n-octanol/water distribution coefficient (log DOW), shake-flask method; format: physicochemical
Description: as §1

[5] = Solubility in buffered aqueous solutions; format: physicochemical; conditions: buffered aqueous solution, 25 °C, aqueous buffer, read-out: Solubility in water
Description: as §1

[6] = design: method as in Franquet‐Griell et al. (2017a); conditions: ref Franquet‐Griell et al. (2017a); cited from earlier work
[7] = system: Wistar rat embryos, murine embryonic stem cells, and mouse fibroblasts; design: method as in Eckardt and Stahlmann 2010; conditions: mammalian systems; ref Eckardt and Stahlmann 2010; cited from earlier work

Structure (SMILES): COc1c(C)c2c(c(O)c1CC=C(C)CCC(=O)O)C(=O)OC2 [MPA, 6‐(1,3‐dihydro‐4‐hydroxy‐6‐methoxy‐7‐methyl‐3‐oxo‐5‐isobenzofuranyl)‐4‐methyl‐4‐hexenoic acid]
- 16‐h LC50 (Artemia salina): 98.4 mg MPA/L
- k photo ([1]; pH 5, summer): 0.0059 min^–1
- k photo ([1]; pH 5, winter): 0.0017 min^–1
- k photo ([1]; pH 7, summer): 0.018 min^–1
- k photo ([1]; pH 7, winter): 0.0049 min^–1
- k photo ([1]; pH 9, summer): 0.031 min^–1
- k photo ([1]; pH 9, winter): 0.0087 min^–1
- Screening hydrolysis ([2]; pH 5, 50 °C): 46.15 % Substance loss
- Screening hydrolysis ([2]; pH 7, 50 °C): 29.03 % Substance loss
- Screening hydrolysis ([2]; pH 9, 50 °C): 36.67 % Substance loss
- ErC50 ([3]; GMMC, 24 h dark + 72 h light, ref European Chemicals Agency 2018): 68 µg/L
- ErC10 [3]: 12 µg/L
- NOErC [3]: 9 µg/L
- EC10, fecundity and reproduction (Daphnia magna; 21 d): 0.929 µg/mL (≈ 2.9 µM)
- LOEC, fecundity and reproduction (Daphnia magna; 21 d): 1800 µg/L
- LOEC, length of parental daphnids (Daphnia magna; 21 d): 1800 µg/L
- NOEC, fecundity and reproduction (Daphnia magna; 21 d): 630 µg MPA/L
- NOEC, length of parental daphnids (Daphnia magna; 21 d): 630 µg/L
- LOEC, mortality/immobility of parental daphnids and intrinsic rate of population increase (Daphnia magna): > 7530 µg/L
- overall EC10 for the daphnids (Daphnia magna): 0.929 µg/mL
- overall NOEC for the daphnids (Daphnia magna): 630 µg MPA/L
- NOEC, mortality/immobility of parental daphnids and intrinsic rate of population increase (Daphnia magna; highest tested concentration): 7530 µg MPA/L
- 48‐h NOEC (daphnid): 440 mg/L
- logD ([4]; pH 5, pH 5, read-out: Log D OW): 2.28
- logD ([4]; pH 5, pH 5 to 9, read-out: log D OW values): ≤ 2.28
- logD ([4]; pH 7, pH 7, read-out: Log D OW): 0.48
- logD ([4]; pH 9, pH 9, read-out: Log D OW): ≤ -1.54
- solubility ([5]; pH 5, 25 ± 2 °C): 45 µg/mL (≈ 140 µM)
- solubility ([5]; pH 7, 25 ± 2 °C): 710 µg/mL (≈ 2220 µM)
- hydrolytic degradation constant [6]: 0.0002 min^–1
- concentrations causing proliferation, cellular and developmental toxicity [7]: ≥ 31 ng/mL
